In the assay the test system is HVA calcium channel (high-voltage activated calcium ion channel). The assay is classed as cell-based, rat.

Turning to `COC(=O)C1=C(C)NC(C)=C(C(=O)OC)C1c1ccccc1[N+](=O)[O-]` [Nifedipine], the current after loading was −734.31 pA and the current before loading is given as −1471.35 pA. Besides, the inhibition rate (10 μM) came out at 50.09%.
